Ends that are not written are not given here.
Tested on: human-derived chondrocytes (C28/I2, human chondrocyte cell line)
Assay: CCK-8 cytotoxicity assay
Format: cell-based
Conditions: C28/I2 cells, different concentrations, 3 days, 450 nm
Protocol: The cytotoxicity of Peptide-1 or Peptide-2 upon addition to human-derived chondrocytes (C28/I2, human chondrocyte cell line) was analyzed using a CCK-8 assay.
Specifically, human-derived chondrocytes were seeded in a 96-well plate at a density of 3×10^3 cells/well and cultured in DMEM medium (cat. 11995-065, Gibco) for 24 hours. […] Meanwhile, as a negative control group, an experimental group to which the peptide was not added was used.

| Substance | cytotoxicity (CCK-8 activity) |
| --- | --- |
| PYYRI [Peptide-1, PYYRI] | did not exhibit toxicity |
| KFLIK [Peptide-2, KFLIK] | did not exhibit toxicity |

From patent US20260200979A1, “PEPTIDE FOR CARTILAGE REGENERATION, AND USES THEREOF” (CAREGEN CO., LTD., priority 2022, published 2026)
